Experiments:
[1] = biological target: human type I sPLA2 (Homo sapiens, UniProt P04054); assay: Inhibition test of human secretory phospholipase A2, chromogenic assay, Type I enzyme; assay type: biochemical; settings: human type I enzyme 90 ng/well, absorbance change 30 min, OD 405 nm
Description: (§1) In order to identify and evaluate an inhibitor of recombinant human secretory phospholipase A2, the following chromogenic assay is utilized. The assay herein has been applied for high volume screening wherein 96 well microtiterplate is used. A general explanation for such assay is described in “Analysis of Human Synovial Fluid Phospholipase A2 on Short Chain Phosphatidylcholine-Mixed Micelles: Development of a Spectrophotometric Assay Suitable for a Micortiterplate Reader” (Analytical Biochemistry, 204, pp 190-197, 1992 by Laure. J. Reynolds. Lori L. Hughes and Edward A. Dennis: the disclosure of which is incorporated herein for reference.
Type I enzyme: sPLA2 solution (330 ng/μl) (described in A. Kanda et. al., Biochimica et Biophysica Acta. 1171 (1992) 1-10) is dissolved in the assay (enzyme solution 27 μl is diluted with 1973 μl of the reaction buffer).
(§2) 1) 0.106 ml of the substrate solution is put in a centrifugal tube, and nitrogen gas is jetted to remove the solvent. 0.54 ml of Triton-X 100 is added thereto, the mixture is stirred, thereafter it is sonified in a bath type sonification to dissolve. To the resulting product are added 17.8 ml of the reaction buffer and 0.46 ml of DTNB, and 0.18 ml each of the admixture is poured to wells of the 96 well microtiterplate.
(§3) 2) 10 μl of a test compound (or solvent blank) are added in accordance with alignment of plates which has been previously set.
(§4) 3) Incubation is effected at 40° C. for 15 minutes.
(§5) 4) 90 ng/well in case of human type I enzyme, 50 ng/well in case of human type II enzyme, 40 μl/well in case of human type V enzyme, 15 μl/well in case of human type X enzyme were reacted.
(§6) 5) Changes in absorbancy for 30 minutes for humane type I, type II, and type X enzyme and for 45 min for human type V enzyme, are measured by a plate reader, and inhibition activity was calculated (OD: 405 nm).
(§7) 6) IC50 was determined by plotting log concentration with respect to inhibition values within 10% to 90% inhibiting range.

[2] = biological target: T1, human type II sPLA2 (Homo sapiens, UniProt P14555); assay: Inhibition test of human secretory phospholipase A2, chromogenic assay, Type II enzyme; assay type: biochemical; settings: human type II enzyme 50 ng/well, absorbance change 30 min, OD 405 nm
T1 sequence (P14555 21-144): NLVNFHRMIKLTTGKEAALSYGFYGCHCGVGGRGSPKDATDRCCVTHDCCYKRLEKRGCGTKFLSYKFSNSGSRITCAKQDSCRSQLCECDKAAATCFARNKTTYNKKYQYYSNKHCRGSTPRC
Description: as §1
Type II enzyme: 1 mg of sPLA2 is dissolved in 1 ml of an enzyme buffer. Thereafter, the solution is maintained at 4° C. In the assay, 5 >l of the solution is diluted with 1995 μl of the reaction buffer to be used.
as §2, §3, §4, §5, §6, §7

[3] = biological target: T2, human type V sPLA2 (Homo sapiens, UniProt P39877); assay: Inhibition test of human secretory phospholipase A2, chromogenic assay, Type V enzyme; assay type: biochemical; settings: human type V enzyme (CHO supernatant) 40 μl/well, absorbance change 45 min, OD 405 nm
T2 construct: made in house; unpurified culture supernatant used
T2 sequence (P39877 21-138): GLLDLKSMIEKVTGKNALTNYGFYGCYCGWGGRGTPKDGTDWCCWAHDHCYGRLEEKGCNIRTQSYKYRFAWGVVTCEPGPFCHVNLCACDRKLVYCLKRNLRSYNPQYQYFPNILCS
Description: (§8) In order to identify and evaluate an inhibitor of recombinant human secretory phospholipase A2, the following chromogenic assay is utilized. The assay herein has been applied for high volume screening wherein 96 well microtiterplate is used. A general explanation for such assay is described in “Analysis of Human Synovial Fluid Phospholipase A2 on Short Chain Phosphatidylcholine-Mixed Micelles: Development of a Spectrophotometric Assay Suitable for a Micortiterplate Reader” (Analytical Biochemistry, 204, pp 190-197, 1992 by Laure. J. Reynolds. Lori L. Hughes and Edward A. Dennis: the disclosure of which is incorporated herein for reference. Type V and Type X enzymes: cDNA sequences encoding human type V and Type X sPLA2 (Chen et., al., J. Biol. Chem., 1994. 269, 2365-2368 and Cupillard et., al., J. Biol. Chem., 1997, 272, 15745-15762) were inserted into downstream of promoter of pSVL SV40 Late Promoter Expression Vector (Amersham Pharmacia Biotech K. K.), mammalian cell expression vector, forwardly. The recombinant expression vectors were transfected into CHO host cells by LipofectAMINE regent (Gibco BRL.) according to the attached manual and the cells expressed each of human type V and type X sPLA2 stably. After each expressing cells were cultured in σ-MEM medium including 10% fetal serum albumin for 3 days, the cells supernatant were collected and measured enzymatic activity. 1) 0.106 ml of the substrate solution is put in a centrifugal tube, and nitrogen gas is jetted to remove the solvent. 0.54 ml of Triton-X 100 is added thereto, the mixture is stirred, thereafter it is sonified in a bath type sonification to dissolve. To the resulting product are added 17.8 ml of the reaction buffer and 0.46 ml of DTNB, and 0.18 ml each of the admixture is poured to wells of the 96 well microtiterplate. 2) 10 μl of a test compound (or solvent blank) are added in accordance with alignment of plates which has been previously set. 3) Incubation is effected at 40° C. for 15 minutes. 4) 90 ng/well in case of human type I enzyme, 50 ng/well in case of human type II enzyme, 40 μl/well in case of human type V enzyme, 15 μl/well in case of human type X enzyme were reacted. 5) Changes in absorbancy for 30 minutes for humane type I, type II, and type X enzyme and for 45 min for human type V enzyme, are measured by a plate reader, and inhibition activity was calculated (OD: 405 nm). 6) IC50 was determined by plotting log concentration with respect to inhibition values within 10% to 90% inhibiting range.

[4] = biological target: T3, human type X sPLA2 (Homo sapiens, UniProt O15496); assay: Inhibition test of human secretory phospholipase A2, chromogenic assay, Type X enzyme; assay type: biochemical; settings: human type X enzyme (CHO supernatant) 15 μl/well, absorbance change 30 min, OD 405 nm
T3 construct: made in house; unpurified culture supernatant used
T3 sequence (O15496 43-165): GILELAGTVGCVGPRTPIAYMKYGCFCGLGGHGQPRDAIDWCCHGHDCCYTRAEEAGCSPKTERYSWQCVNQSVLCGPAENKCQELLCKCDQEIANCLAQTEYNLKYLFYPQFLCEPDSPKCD
Description: as §8

human type I sPLA2, sequence (P04054 23-148): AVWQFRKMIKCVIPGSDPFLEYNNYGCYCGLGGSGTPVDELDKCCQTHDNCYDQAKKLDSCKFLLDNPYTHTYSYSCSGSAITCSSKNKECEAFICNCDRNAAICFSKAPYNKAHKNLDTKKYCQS

SMILES	IC50 [1] [nM]	IC50 [2] [nM]	IC50 [3] [nM]	IC50 [4] [nM]	melting point
Cc1cc(OCC(=O)O)c2c3c(c(Cc4ccccc4)n2n1)CCC=C3C(N)=O [Compound I-1]	170	7	2	4	256 to 258 °C (dec.)
Cc1cc(OC(C)C(=O)O)c2c3c(c(Cc4ccc(Cl)cc4)n2n1)CCC=C3C(N)=O (stereo not drawn) [Compound I-6]	86	17	1	5	
COc1cccc(Cc2c3c(c4c(OCC(=O)O)cc(C)nn24)C(C(N)=O)=CCC3)c1 [Compound I-7]	215	10	2	16	
Cc1cc(OCC(=O)O)c2c3c(c(Cc4ccc(Cl)cc4)n2n1)CCC=C3C(N)=O [Compound I-5]	147	8	1	6	
Cc1cc(OC(C)C(=O)O)c2c3c(c(Cc4ccccc4)n2n1)CCC=C3C(N)=O (stereo not drawn) [Compound I-2]	79	15	3	4	
Cc1ccc(Cc2c3c(c4c(OC(C)C(=O)O)cc(C)nn24)C(C(N)=O)=CCC3)cc1 (stereo not drawn) [Compound I-4]	139	21	2	7	
COc1cccc(Cc2c3c(c4c(OC(C)C(=O)O)cc(C)nn24)C(C(N)=O)=CCC3)c1 (stereo not drawn) [Compound I-8]	76	23	2	12	
Cc1ccc(Cc2c3c(c4c(OCC(=O)O)cc(C)nn24)C(C(N)=O)=CCC3)cc1 [Compound I-3]	460	11	2	10	

The remaining lines, values ahead:

IC50 [1] [nM]	IC50 [2] [nM]	IC50 [3] [nM]	IC50 [4] [nM]	melting point	SMILES
57	14	1	1		Cc1cn2c(CC3CCCCC3)c3c(c2c(OC(C)C(=O)O)n1)C(C(N)=O)=CCC3 (stereo not drawn) [Compound I-14]
86	8	2	4		NC(=O)C1=CCCc2c1c1c(OCC(=O)O)nccn1c2Cc1ccccc1 [Compound I-12]
49	6	0.2	2		COc1cccc(Cc2c3c(c4c(OCC(=O)O)cc(-c5ccccc5)nn24)C(C(N)=O)=CCC3)c1 [Compound I-10]
234	9	1	6		Cc1cn2c(Cc3ccccc3)c3c(c2c(OCC(=O)O)n1)C(C(N)=O)=CCC3 [Compound I-11]
51	8	0.2	1		NC(=O)C1=CCCc2c1c1c(OCC(=O)O)cc(-c3ccccc3)nn1c2Cc1ccccc1 [Compound I-9]
93	19	4	7		Cc1cn2c(Cc3ccccc3)c3c(c2c(OC(C)C(=O)O)n1)C(C(N)=O)=CCC3 (stereo not drawn) [Compound I-13]
